pIC50: −log10 of the molar value.
Each molecule was assayed against BTK (Homo sapiens (Human), UniProt Q06187) (assay: Btk kinase assay (HTRF)). Conditions: [ATP]=80 μM, BTK=3.4 nM; read-out: BTK Inhibition.
Assay type: biochemical
Method: Btk kinase activity was determined using a homogenous time resolved fluorescence (HTRF) methodology. Measurements were performed in a reaction volume of 15 μL using 384-well assay plates. Kinase enzyme, inhibitor, ATP and 1 μM peptide substrate were incubated in a reaction buffer compose of Hepes 50 mM (pH7.0), NaN3 0.02%, BSA 0.01%, Orthocanadate 0.1 mM. After one hour, the kinase reaction was quenched by the addition of […] antibody and XL-665 in 1× Detection buffer containing 60 mM EDTA (Cisbio), and the mixture was allowed to incubate for one hour. The HTRF signal was measured on a multimode plate reader (EnVision® Multilabel Reader, Perkin Elmer) with an excitation wavelength (λEx) of 330 nm and detection wavelengths (λEm) of 615 and 665 nrm. Activity was determined by the ratio of the fluorescence at 665 nm to that at 615 nm. For each compound, enzyme activity as measured at various concentrations of compound, Negative control reactions were performed in the absence of inhibitor in two replicates and eight no enzyme controls were used to determine baseline fluorescence levels. IC50s were obtained according to the equation: […] For BTK assay, [ATP]=80 μM, BTK=3.4 nM.

Sequence of BTK (Q06187 whole entry, species assumed): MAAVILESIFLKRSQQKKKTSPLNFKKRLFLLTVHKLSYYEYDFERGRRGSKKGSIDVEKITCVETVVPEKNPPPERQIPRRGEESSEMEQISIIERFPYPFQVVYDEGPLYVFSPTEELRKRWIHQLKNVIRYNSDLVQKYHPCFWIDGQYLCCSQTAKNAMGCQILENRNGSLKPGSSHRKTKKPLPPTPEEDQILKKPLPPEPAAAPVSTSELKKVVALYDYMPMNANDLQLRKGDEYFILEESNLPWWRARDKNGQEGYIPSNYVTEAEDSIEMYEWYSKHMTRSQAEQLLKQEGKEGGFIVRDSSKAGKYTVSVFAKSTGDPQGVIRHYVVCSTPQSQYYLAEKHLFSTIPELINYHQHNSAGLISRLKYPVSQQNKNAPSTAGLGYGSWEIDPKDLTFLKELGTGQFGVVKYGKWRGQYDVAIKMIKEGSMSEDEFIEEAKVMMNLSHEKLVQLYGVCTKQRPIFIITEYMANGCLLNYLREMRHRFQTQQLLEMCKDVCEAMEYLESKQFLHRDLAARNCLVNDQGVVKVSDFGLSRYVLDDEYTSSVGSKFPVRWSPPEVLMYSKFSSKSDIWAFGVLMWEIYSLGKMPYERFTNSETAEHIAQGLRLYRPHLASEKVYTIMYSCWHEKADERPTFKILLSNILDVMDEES

First: C=CC(=O)Nc1cccc(-n2c(=O)n(-c3ccc(NC(=O)c4ccccc4C(F)(F)F)cc3)c3cnccc32)c1 [Example 262, N-(4-(1-(3-acrylamidophenyl)-2-oxo-1,2-dihydro-3H-imidazo[4,5-c]pyridin-3-yl)phenyl)-2-(trifluoromethyl)benzamide]
Second: C=CC(=O)Nc1cccc(-n2c(=O)n(-c3ccc(NC(=O)c4ccccc4OC)cc3)c3cnccc32)c1 [Example 258, N-(4-(1-(3-acrylamidophenyl)-2-oxo-1H-imidazo[4,5-c]pyridin-3(2H)-yl)phenyl)-2-methoxybenzamide]
The pIC50 of the first is lower: 6.00 to 7.00 for the first, 7.00 to 8.00 for the second. The second is the more potent here.

`C=CC(=O)Nc1cccc(-n2c(=O)n(-c3ccc(NC(=O)c4ccccc4)cc3)c3cnccc32)c1` [Example 261, N-(4-(1-(3-acrylamidophenyl)-2-oxo-1H-imidazo[4,5-c]pyridin-3(2H)-yl)phenyl)benzamide] and `C=CC(=O)Nc1cccc(-n2c(=O)n(-c3ccc(NC(=O)c4cccc(F)c4)cc3)c3cnccc32)c1` [Example 265, N-(4-(1-(3-acrylamidophenyl)-2-oxo-1H-imidazo[4,5-c]pyridin-3(2H)-yl)phenyl)-3-fluorobenzamide] fall in the same range of pIC50: 6.00 to 7.00 for the first, 6.00 to 7.00 for the second.

First: CN(C/C=C/C(=O)N1CCC[C@@H](n2c(=O)n(-c3ccc(Oc4ccccc4)cc3)c3cnccc32)C1)C1CC1 [Example 188, (R,E)-1-(1-(4-(cyclopropyl(methyl)amino)but-2-enoyl)piperidin-3-yl)-3-(4-phenoxyphenyl)-1H-imidazo[4,5-c]pyridin-2(3H)-one]
Second: C=CC(=O)N1CCC[C@@H](n2c(=O)n(-c3ccc(Oc4cccc(C)c4)cc3)c3cnccc32)C1 [Example 13, (R)-1-(1-acryloylpiperidin-3-yl)-3-(4-(m-tolyloxy)phenyl)-1H-imidazo[4,5-c]pyridin-2(3H)-one]
The pIC50 of the first is lower: 6.00 to 7.00 for the first, 7.00 to 8.00 for the second.

First: O=C(/C=C/c1ccccc1)Nc1cccc(-n2c(=O)n(-c3ccc(Oc4ccccc4)cc3)c3cnccc32)c1 [Example 109, N-(3-(2-oxo-3-(4-phenoxyphenyl)-2,3-dihydro-1H-imidazo[4,5-c]pyridin-1-yl)phenyl)cinnamamide]
Second: C=CC(=O)Nc1cccc(-n2c(=O)n(-c3ccc(Oc4cccc(Cl)c4)cc3)c3cnccc32)c1 [Example 69, N-(3-(3-(4-(3-chlorophenoxy)phenyl)-2-oxo-2,3-dihydro-1H-imidazo[4,5-c]pyridin-1-yl)phenyl)acrylamide]
The pIC50 of the first is lower: ≤ 5.00 for the first, 7.00 to 8.00 for the second.

First: O=C(/C=C/N1CCOCC1)N1CC[C@@H](n2c(=O)n(-c3ccc(Oc4ccccc4)c(Cl)c3)c3cnccc32)C1 [Example 18, (R,E)-3-(3-chloro-4-phenoxyphenyl)-1-(1-(3-morpholinoacryloyl)pyrolidin-3-yl)-1H-imidazo[4,5-c]-pyridin-2(3H)-one]
Second: C=CC(=O)N1CC[C@@H](n2c(=O)n(-c3ccc(Oc4cccc(Cl)c4)c(F)c3)c3cnccc32)C1 [Example 149, (R)-1-(1-acryloylpyrrolidin-3-yl)-3-(4-(3-chlorophenoxy)-3-fluorophenyl)-1H-imidazo[4,5-c]pyridin-2(3H)-one]
The pIC50 of the first is lower: 6.00 to 7.00 for the first, 7.00 to 8.00 for the second. The second is the more potent here.

Compared with `CC(C)(C)/C=C(/C#N)C(=O)N1CCCC1Cn1c(=O)n(-c2ccc(Oc3ccccc3)cc2)c2cnccc21` (stereo not drawn) [Example 180, 4,4-Dimethyl-2-{2-[2-oxo-3-(4-phenoxy-phenyl)-2,3-dihydro-imidazo[4,5-c]pyridin-1-ylmethyl]-pyrrolidine-1-carbonyl}-pent-2-enenitrile], `C=CC(=O)N1CC[C@@H](n2c(=O)n(-c3ccc(Oc4ccccc4)cc3)c3cncc(C)c32)C1` [Example 176, (R)-1-(1-acryloylpyrrolidin-3-yl)-7-methyl-3-(4-phenoxyphenyl)-1H-imidazo[4,5-c]pyridin-2(3H)-one] is higher in pIC50: 6.00 to 7.00 for the first, ≥ 8.00 for the second. The second is the more potent here.

First: C=CC(=O)N1CC[C@@H](n2c(=O)n(-c3ccc(Oc4cccc(OC(C)C)c4)c(F)c3)c3cnccc32)C1 [Example 52, (R)-1-(1-acryloylpyrrolidin-3-yl)-3-(3-fluoro-4-(3-isopropoxyphenoxy)phenyl)-1H-imidazo[4,5-c]pyridin-2(3H)-one]
Second: C=CC(=O)N1CC[C@@H](n2c(=O)n(-c3ccc(Oc4ccccc4C)cc3)c3cnccc32)C1 [Example 83, (R)-1-(1-acryloylpyrrolidin-3-yl)-3-(4-(o-tolyloxy)phenyl)-1H-imidazo[4,5-c]pyridin-2(3H)-one]
The pIC50 of the first is lower: 6.00 to 7.00 for the first, 7.00 to 8.00 for the second. The second is the more potent here.

First: C=CC(=O)Nc1cccc(-n2c(=O)n(-c3ccc(Oc4cc(F)cc(Cl)c4)cc3)c3cnccc32)c1 [Example 129, N-(3-(3-(4-(3-chloro-5-fluorophenoxy)phenyl)-2-oxo-2,3-dihydro-1H-imidazo[4,5-c]pyridin-1-yl)phenyl)acrylamide]
Second: C=CC(=O)Nc1cccc(-n2c(=O)n(-c3ccc(Oc4cccc(F)c4)c(F)c3)c3cnccc32)c1 [Example 90, N-(3-(3-(3-fluoro-4-(3-fluorophenoxy)phenyl)-2-oxo-2,3-dihydro-1H-imidazo[4,5-c]pyridin-1-yl)phenyl)acrylamide]
The pIC50 of the first is lower: 6.00 to 7.00 for the first, 7.00 to 8.00 for the second.

`C=CC(=O)N1CC[C@@H](n2c(=O)n(-c3ccc(OCc4ccc(C(F)(F)F)cc4)cc3)c3cnccc32)C1` [Example 212, (R)-1-(1-acryloylpyrrolidin-3-yl)-3-(4-((4-(trifluoromethyl)benzyl)oxy)phenyl)-1H-imidazo[4,5-c]pyridin-2(3H)-one] and `C=CC(=O)N1CC[C@@H](n2c(=O)n(-c3ccc(Oc4ccc(Cl)cc4)cc3)c3cnccc32)C1` [Example 82, (R)-1-(1-acryloylpyrrolidin-3-yl)-3-(4-(4-chlorophenoxy)phenyl)-1H-imidazo[4,5-c]pyridin-2(3H)-one] fall in the same range of pIC50: 6.00 to 7.00 for the first, 6.00 to 7.00 for the second.

`C=CC(=O)Nc1cccc(-n2c(=O)n(-c3ccc(Oc4cccc(F)c4OC)cc3)c3cnccc32)c1` [Example 136, N-(3-(3-(4-(3-fluoro-2-methoxyphenoxy)phenyl)-2-oxo-2,3-dihydro-1H-imidazo[4,5-c]pyridin-1-yl)phenyl)acrylamide] and `C=CC(=O)Nc1cccc(-n2c(=O)n(-c3ccc(Oc4cccc(F)c4)c(C)c3)c3cnccc32)c1` [Example 146, N-(3-(3-(4-(3-fluorophenoxy)-3-methylphenyl)-2-oxo-2,3-dihydro-1H-imidazo[4,5-c]pyridin-1-yl)phenyl)acrylamide] fall in the same range of pIC50: 7.00 to 8.00 for the first, 7.00 to 8.00 for the second.

`C=CC(=O)Nc1cccc(-n2c(=O)n(-c3ccc(C(=O)NCc4ccc(F)cc4)cc3)c3cnccc32)c1` [Example 249, 4-(1-(3-acrylamidophenyl)-2-oxo-1H-imidazo[4,5-c]pyridin-3(2H)-yl)-N-(4-fluorobenzyl)benzamide] and `C=CC(=O)Nc1cccc(-n2c(=O)n(-c3ccc(OCc4ccccc4C(F)(F)F)cc3)c3cnccc32)c1` [Example 232, N-(3-(2-oxo-3-(4-((2-(trifluoromethyl)benzyl)oxy)phenyl)-2,3-dihydro-1H-imidazo[4,5-c]pyridin-1-yl)phenyl)acrylamide] fall in the same range of pIC50: 7.00 to 8.00 for the first, 7.00 to 8.00 for the second.

First: CC#CC(=O)N1CCC[C@@H](n2c(=O)n(-c3ccc(Oc4cccc(OC)c4F)cc3)c3cncc(C)c32)C1 [Example 171, (R)-1-(1-(but-2-ynoyl)piperidin-3-yl)-3-(4-(2-fluoro-3-methoxyphenoxy)phenyl)-7-methyl-1H-imidazo[4,5-c]pyridin-2(3H)-one]
Second: C=CC(=O)Nc1cccc(-n2c(=O)n(-c3cccc(Oc4ccc(C)cc4)c3)c3cnccc32)c1 [Example 76, N-(3-(2-oxo-3-(3-(p-tolyloxy)phenyl)-2,3-dihydro-1H-imidazo[4,5-c]pyridin-1-yl)phenyl)acrylamide]
The pIC50 of the first is lower: 6.00 to 7.00 for the first, 7.00 to 8.00 for the second. The second is the more potent here.

Reference: US10358446B2, “Bruton's tyrosine kinase inhibitors” (Zibo Biopolar Changsheng Pharmaceutical Co. Ltd., priority 2015, dated 2019)
